Test results taken from patent EP0412158A1, “ONCOSTATIC DRUG” (priority 1987, dated 1988).

How the values were obtained:
[1] = system: methyl cholanthrene A tumor; assay: Methyl cholanthrene A tumor, evaluation by weight of tumor (Examples 13 to 16); assay type: in vivo, female BALB/C mice; conditions: for Average weight of tumor / Number of tumorless mice /total number of mice / T/control: 100 mg/kg; for Average weight of tumor / Number of tumorless mice /total number of mice: ip × 9; for T/control: ip×9, tumor weight
Protocol: (§1) Compound E, an alkali metal salt of polymolybdic acid (Example 13), and other compounds (Compounds F to H) mentioned above were severally dissolved in distilled water to obtain aqueous solutions containing the compounds in a fixed concentration of 10 mg/ml. These aqueous solutions were administered to female BALB/C mice (five weeks old) to which methyl cholanthrene A tumor had been transplanted to test the compounds for antineoplastic activity. To be morespecific, the methyl cholanthrene A was transplanted to the mice in a ratio of 1.0 x 10^5 cells per mouse and the aqueous solution was continuously administered (at a dose of 100 mg/kg of body weight) for nine days by intraperitoneal injection. On elapse of 14 days after the stop of the administration, the tumors in the mice were weighed. For comparison, mice to which the aqeuous solution was not administered and the mice to which aminonitrosourea was administered were similarly tested.

methyl cholanthrene A [2] = assay: Methyl cholanthrene A tumor, evaluation by elongation of period of survival (Examples 17 to 20); assay type: in vivo, female BALB/C mice; conditions: 100 mg/kg ×9
Protocol: The aforementioned active compounds, E to H, were severally dissolved in distilled water to obtain aqueous solutions containing the compounds in a fixed concentration of 10 mg/ml. To female BALB/C mice (five weeks old) to which methyl cholanthrene A had been transplanted in a ratio of 1.0 x 10^5 cells per mouse, the aqueous solutions were continuously administered at a dose of 100 mg/kg of body weight for nine days by intraperitoneal injection to determine the mices periods of survival. For comparison, mice to which no aqueous solution was administered and mice to which aminonitrosourea was administered were similarly tested.

[3] = Methyl cholanthrene A tumor, evaluation by weight of tumor (Examples 13 to 16); assay type: in vivo, female BALB/C mice; conditions: mouse, in vivo, ip; read-out: largest allowable dose
Protocol: as §1

methyl cholanthrene A [4] = assay: Methyl cholanthrene A tumor, evaluation by extension of period of survival (Examples 7 to 11); assay type: in vivo, female BALB/C mice; conditions: 5 mg/kg; for Average number of days of survival / Number of toxically killed mice/total number of mice / T/control: ip×9; for Change in body weight: ip×9, D1~D9; for T/control: days of survival
Protocol: The aforementioned compounds, A to D, were severally dissolved in distilled water to obtain aqueous solutions containing the compounds in a fixed concentration of 10 mg/ml. To the female BALB/C mice (five weeks old) to which methyl cholanthrene A had been transplanted in a ratio of 1.0 x 10^5 cells per mouse, […] to determine the mices' periods of survival. For comparison, mice to which no antineoplastic drug was administered and mice to which aminonitroso urea was administered were similarly tested.

methyl cholanthrene A [5] = assay: Methyl cholanthrene A tumor, evaluation by elongation of period of survival (Examples 31, 34 and 35); assay type: in vivo, female BALB/C mice
Protocol: The active compounds, M to 0, mentioned above were severally dissolved in distilled water to obtain aqueous solutions containing the compounds in a fixed concentration of 10 mg/ml. To be specific, to female BALB/C mice (five weeks old) to which methyl cholanthrene A had been transplanted in a ratio of 1.0 x 10^5 cells per mouse, […] for 9 consecutive days to determine the mice's periods of survival. For comparison, mice to which no aqueous solution was administered and mice to which aminonitrosourea was administered were similarly tested.

[6] = Methyl cholanthrene A tumor, evaluation by size of tumor (Examples 31 to 33); assay type: in vivo, female BALB/C mice; conditions: mouse, in vivo, ip; read-out: largest allowable dose
Protocol: (§2) A heteropoly acid salt, Na5[IM06O24]•34H2O (Compound M), and other compounds (Compounds N and O ) were severally dissolved in distilled water to obtain aqueous solutions containing the salts in a fixed concentration of 10 mg/ml. To female BALB/C mice (five weeks old) to which methyl cholanthrene A tumor had been transplanted, the aqueous solutions were administered to test the compounds for antineoplastic activity. To be specific, the methyl cholanthrene A was transplanted to the mice at a ratio of 1.0 x 10^5 cells per mouse and the aqueous solutions were administered ([…]) for 9 consecutive days by intraperitoneal injection. On elapse of 14 and 21 days after the stop of the administration, the sizes of tumors in the mice were measured. For comparison, mice to which no aqueous solution was administered and mice to which aminonitrosourea was administered were similarly tested.

[7] = system: methyl cholanthrene A tumor; assay: as above; assay type: in vivo, female BALB/C mice
Protocol: as §2

MM-46 breast cancer [8] = assay type: in vivo, female C3H/He mice; conditions: 5 mg/kg, ip × 9
methyl cholanthrene A [9] = assay: Methyl cholanthrene A tumor, evaluation by elongation of period of survival (Examples 17 to 20); assay type: in vivo, female BALB/C mice; conditions: 5 mg/kg ×9
[10] = system: methyl cholanthrene A tumor; assay: Methyl cholanthrene A tumor, evaluation by weight of tumor (Examples 13 to 16); assay type: in vivo, female BALB/C mice; conditions: 5 mg/kg
[11] = MM-46 breast cancer, evaluation by size of tumor (Examples 21 to 24); assay type: in vivo, female C3H/He mice; conditions: mouse, in vivo, ip; read-out: largest allowable dose
MM-46 breast cancer [12] = assay: as above; assay type: in vivo, female C3H/He mice; conditions: 5 mg/kg
[13] = Antineoplastic activity against transplanted methyl cholanthrene A tumor, evaluation by size of tumor (Examples 1 to 6); assay type: in vivo, female BALB/C mice; conditions: mouse, in vivo, ip
Protocol: (§3) By dissolving alkylammonium salt of polymolybdic acid [NH3C3H7(iso)]s [Mo7O24] • 3H2O (Compound A) and other compounds (Compounds B to D) severally in distilled water, aqueous solutions containing the compounds in a fixed concentration of 10 mg/ml were obtained. These aqueous solutions were administered to female BALB/C mice (five weeks old) to which methyl cholanthrene A tumor had been transplanted to test the compounds for antineoplastic activity. To be specific, methyl cholanthrene A was transplanted to the mice in a ratio of 1.0 x 10^5 cells per mouse and the aqueous solutions were continuously administered to the mice by intraperitoneal injection ([…]) for nine days. On elapse of 14 days following the start of the administration, the tumors in the mice were measured. For comparison, mice to which no antineoplastic .drug was administered and mice to which aminonitroso urea was administered were tested by following the procedure described above.

[14] = system: methyl cholanthrene A tumor; assay: as above; assay type: in vivo, female BALB/C mice; conditions: 5 mg/kg, ip×9; for Change in body weight: body weight 13 days after transplantation; for T/control: tumor weight
Protocol: as §3

For `O.O.O.O.[Cs+].[Cs+].[Cs+].[Cs+].[Cs+].[Cs+].[O]=[Mo](=[O])([O-])[O][Mo](=[O])(=[O])[O][Mo](=[O])([O-])([O-])[O][Mo](=[O])(=[O])[O][Mo](=[O])([O-])([O-])[O][Mo](=[O])(=[O])[O][Mo](=[O])(=[O])[O-]` [Compound H, Cs6 [Mo7O24] • 4H2O], the “Average weight of tumor” value [1] was 1599.5±340.6(8) mg, the “Number of tumorless mice /total number of mice” value [1] was 0/8 and the T/control [1] was 0.621. The “Average number of days of survival” value (methyl cholanthrene A [2]) was 32.9±5.5(8) days, the “Number of toxically killed mice/total number of mice” value (methyl cholanthrene A [2]) was 0/8 and the “Ratio of prolonging life” value (methyl cholanthrene A [2]) was 46.2%.
In the case of `Cc1ncc(CNC(=O)N(CCCl)N=O)c(N)n1` [reference compound], the MTD [3] is reported as 5 mg/kg, the “Average number of days of survival” value (methyl cholanthrene A [4]; No. 1) is reported as 35.8 ± 1.4 days and the “Number of toxically killed mice/total number of mice” value (methyl cholanthrene A [4]; No. 1) is reported as 0/8. For the same compound, the “Change in body weight” value (methyl cholanthrene A [4]; No. 1) was “+1.58 g”, the T/control (methyl cholanthrene A [4]; No. 1) was 138.0 and the “Average number of days of survival” value (methyl cholanthrene A [4]; No. 2) was 28.0±3.1(9) days. The “Number of toxically killed mice/total number of mice” value (methyl cholanthrene A [4]; No. 2) was 0/8, the “Change in body weight” value (methyl cholanthrene A [4]; No. 2) was “+1.58 g” and the T/control (methyl cholanthrene A [4]; No. 2) was 124.5. For the same compound, the “Average number of days of survival ±SE” value (methyl cholanthrene A [5]; 2.5 mg/kg, ip × 9 (D1~D9)) was 31.13±1.14(8) days, the ILS (methyl cholanthrene A [5]; 2.5 mg/kg, ip × 9 (D1~D9)) was 18% and the “Average number of days of survival ±SE” value (methyl cholanthrene A [5]; 7.5 mg/kg, ip × 9) was 36.67±1.07(9) days. For the same compound, the ILS (methyl cholanthrene A [5]; 7.5 mg/kg, ip × 9) was 47.3%, the “Number of mice of no tumor/total number of mice” value (methyl cholanthrene A [5]; 7.5 mg/kg, ip × 9, observed 60 days after transplantation) was 0/9 and the MTD [6] was 7.5 mg/kg. For the same compound, the “Average weight of tumor after elapse of 14 days ± SE” value ([7]; 2.5 mg/kg, ip × 9 (D1~D9)) was 347.9 ± 63.8 mg, the T/C ([7]; 2.5 mg/kg, ip × 9 (D1~D9), tumor weight after 14 days) was 0.405 and the T/C ([7]; 7.5 mg/kg, ip × 9, tumor weight after 14 days) was 0.367. The T/C ([7]; 7.5 mg/kg, ip × 9, tumor weight after 21 days) was 0.444, the “Average number of days of survival” value (MM-46 breast cancer [8]) was 29.1±2.1(8) days and the “Average weight of tumor after 14 days” value (MM-46 breast cancer [8]) was 1364.3 ± 200.0 mg. For the same compound, the “Ratio of elongation of life (5)” value (MM-46 breast cancer [8]) was 76.4, the “Average number of days of survival” value (methyl cholanthrene A [9]) was 28.0±3.1(9) days and the “Number of toxically killed mice/total number of mice” value (methyl cholanthrene A [9]) was 0/8. The “Ratio of prolonging life” value (methyl cholanthrene A [9]) was 24.4%, the “Average weight of tumor” value ([10]; ip × 9) was 1151.1 ± 162.7 mg and the “Number of tumorless mice /total number of mice” value ([10]; ip × 9) was 0/8. The T/control ([10]; ip×9, tumor weight) was 0.447, the “Change in body weight” value ([10]; ip×9 D1-D9, body weight 13 days after tumor transplantation) was “+1,58 g” and the MTD [11] was 5 mg/kg. The “Average weight of tumor” value (MM-46 breast cancer [12]; ip × 9) was 1364.3 ± 200.0 mg, the “Number of tumorless mice /total number of mice” value (MM-46 breast cancer [12]; ip × 9) was 0/8 and the T/control (MM-46 breast cancer [12]; ip×9, tumor weight) was 0.473. The MTD [13] was 5 mg/kg, the “Average weight of tumor” value ([14]; No. 1) was 1151.1 ± 162.7 mg and the “Number of tumorless mice /total number of mice” value ([14]; No. 1) was 0/8. The “Change in body weight” value ([14]; No. 1) was “+1,58 (D1~D9) g”, the T/control ([14]; No. 1) was 0.430 and the “Average weight of tumor” value ([14]; No. 3) was 1151.1 ± 162.7 mg. For the same compound, the “Number of tumorless mice /total number of mice” value ([14]; No. 3) was 0/8, the “Change in body weight” value ([14]; No. 3) was “+1,58 (D1~D9) g” and the T/control ([14]; No. 3) was 0.430.
For `O.O.O.O.[Na+].[Na+].[Na+].[Na+].[Na+].[Na+].[O]=[Mo](=[O])([O-])[O][Mo](=[O])(=[O])[O][Mo](=[O])([O-])([O-])[O][Mo](=[O])(=[O])[O][Mo](=[O])([O-])([O-])[O][Mo](=[O])(=[O])[O][Mo](=[O])(=[O])[O-]` [Compound F, Na6 [Mo7O24] • 4H2O], the “Average weight of tumor” value [1] was 1592.8±257.6(8) mg, the “Number of tumorless mice /total number of mice” value [1] was 0/8 and the T/control [1] was 0.618. The “Average number of days of survival” value (methyl cholanthrene A [2]) was 35.0±5.7(8) days, the “Number of toxically killed mice/total number of mice” value (methyl cholanthrene A [2]) was 0/8 and the “Ratio of prolonging life” value (methyl cholanthrene A [2]) was 55.6%.
For `O.O.O.O.[K+].[K+].[K+].[K+].[K+].[K+].[O]=[Mo](=[O])([O-])[O][Mo](=[O])(=[O])[O][Mo](=[O])([O-])([O-])[O][Mo](=[O])(=[O])[O][Mo](=[O])([O-])([O-])[O][Mo](=[O])(=[O])[O][Mo](=[O])(=[O])[O-]` [Compound E, K6 [Mo7O24] • 4H2O], the “Average weight of tumor” value [1] was 1281.6±184.2(8) mg, the “Number of tumorless mice /total number of mice” value [1] was 0/8 and the T/control [1] was 0.498. For the same compound, the toxicity ([1]; 100 mg/kg.ip for nine days, judged by increase of body weight, result in words) was “very slight toxicity”, the “Average number of days of survival” value (methyl cholanthrene A [2]) was 35.5±2.2(8) days and the “Number of toxically killed mice/total number of mice” value (methyl cholanthrene A [2]) was 0/8. The “Ratio of prolonging life” value (methyl cholanthrene A [2]) was 57.8%.
In the case of `O.O.O.O.[Li+].[Li+].[Li+].[Li+].[Li+].[Li+].[O]=[Mo](=[O])([O-])[O][Mo](=[O])(=[O])[O][Mo](=[O])([O-])([O-])[O][Mo](=[O])(=[O])[O][Mo](=[O])([O-])([O-])[O][Mo](=[O])(=[O])[O][Mo](=[O])(=[O])[O-]` [Compound G, Li6 [Mo7O24] • 4H2O], the “Average weight of tumor” value [1] is reported as 1760±254.6(8) mg, the “Number of tumorless mice /total number of mice” value [1] is reported as 0/8 and the T/control [1] is reported as 0.683. For the same compound, the “Average number of days of survival” value (methyl cholanthrene A [2]) was 31.6±5.4(8****) days, the “Number of toxically killed mice/total number of mice” value (methyl cholanthrene A [2]) was 0/8 and the “Ratio of prolonging life” value (methyl cholanthrene A [2]) was 40.4%.
